The source of these data is US20250332141A1, “A PHARMACEUTICAL COMPOSITION COMPRISING AN INHIBITOR OF GLUTAMINE SYNTHETASE ENZYME TO COMBAT ARTEMISININ RESISTANCE IN MALARIA” (Institute of Life Sciences, priority 2022, published 2025).

Data set [1] relates to ART-resistant PfCam3.I^R539T strain. Description: Ring-stage survival assay (RSA) with ART-resistant strain. The class given is cell-based, Plasmodium falciparum. As for the experimental part: PfCam3.I^R539T strain was maintained under standard conditions. When the parasitemia reached around 2% with predominant ring stages, the cultures were subjected to two rounds of tight synchronization within a span of 3 h in the previous cycle, followed by one additional synchronization in the subsequent cycle when they are in early rings. […] The medium change was carried out at 48 and 72 h, and after 96 h, the culture parasitemia was examined by Giemsa-stained smears and flow cytometry. For growth assessment by ^3H-hypoxanthine uptake, the label was added at 72 h and the cells were harvested at 96 h. The experiments were carried out independently in RPMI^-gln and RPMI^Pgln medium.

Data set [2] relates to Pf asexual stages (Pf3D7 cultures). Kind of data set: MSO and PPT inhibition of in vitro growth of Pf cultures. The class given is cell-based, Plasmodium falciparum. The conditions noted are these: for IC50: Plasmodium falciparum, read-out: IC50 for inhibiting Pf growth. The protocol: The parasites were subcultured with fresh RBCs when the culture parasitemia reached around 2-5%. […] The isolated parasites were washed thoroughly with ice cold PBS for four times to remove the carry-over of proteins from RBC lysates. ART-resistant PfCam3.I^R539T strain was also maintained in a similar fashion. Giemsa-stained smears were routinely prepared to examine the parasite growth and parasitemia. Parasite growth assessment for experiments was carried out by Giemsa-stained smears, flow cytometry and ^3H-hypoxanthine uptake. […] The radioactive counts were measured using MicroBeta^2 Microplate Counters (PerkinElmer).

Data set [3] addresses T1, rPfGS (Plasmodium falciparum glutamine synthetase) (Plasmodium falciparum, UniProt C0H551).
T1 sequence (C0H551 1-543): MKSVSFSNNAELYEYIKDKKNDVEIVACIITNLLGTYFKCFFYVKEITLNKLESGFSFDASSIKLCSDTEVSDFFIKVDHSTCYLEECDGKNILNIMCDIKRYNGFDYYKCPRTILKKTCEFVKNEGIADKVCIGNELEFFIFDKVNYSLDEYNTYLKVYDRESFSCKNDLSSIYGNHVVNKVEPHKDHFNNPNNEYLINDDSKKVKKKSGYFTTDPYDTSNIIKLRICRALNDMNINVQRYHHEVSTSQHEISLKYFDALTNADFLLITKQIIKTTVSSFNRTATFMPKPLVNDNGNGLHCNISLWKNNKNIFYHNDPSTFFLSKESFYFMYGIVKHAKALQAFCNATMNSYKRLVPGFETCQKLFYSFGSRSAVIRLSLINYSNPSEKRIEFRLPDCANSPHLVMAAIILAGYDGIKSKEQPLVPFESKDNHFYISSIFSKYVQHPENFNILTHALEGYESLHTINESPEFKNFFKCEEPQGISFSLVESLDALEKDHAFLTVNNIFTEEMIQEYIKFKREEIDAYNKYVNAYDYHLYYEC
Kind of data set: Recombinant PfGS enzyme assay (HPLC glutamine formation / Pi release) and inhibition. The class given is biochemical.

For a further data set, the system named is Pf clinical isolates. Kind of data set: Inhibition studies with Pf clinical samples (3H-hypoxanthine uptake). The class given is cell-based, Plasmodium falciparum. Particulars: in vitro cultures without or with glutamine; n=7 clinical isolates.
The test system of another data set is Pf protein synthesis. Description: In vitro metabolic protein labelling with 35S-Methionine and Cysteine. The class given is cell-based. Particulars: Plasmodium falciparum, 12 h treatment; for inhibition at 50 µM / inhibition at 250 µM: RPMI^-gln medium; for inhibition at 1000 µM: 1 mM, RPMI^Pgln medium. As for the experimental part: After 9 h of radiolabelling, parasites were isolated by saponin lysis, resuspended in 50 mM Tris pH 8.0 containing 100 mM NaCl, 2% glycerol and 0.1% Triton X-100, and lysed by sonication. The lysates were resolved on 10% SDS-PAGE gel and phosphorimager scanning was carried out to examine the radiolabelling of proteins using Amersham Typhoon 5 Biomolecular Imager. In parallel, 10 μl of the lysates were spotted on Whatman filter paper grade I, dried and washed subsequently with hot and cold 10% (w/v) trichloroacetic acid to remove free amino acids and charged-tRNAs, followed by diethyl ether to remove lipids. The filter papers were then placed in Ultima Gold XR scintillation cocktail and the radioactive counts were measured using MicroBeta^2 Microplate Counters. All these experiments were performed with identical parasitemia and hematocrit between the untreated and treated groups by equally splitting the infected cultures.

A further data set deals with Pf parasites. Particulars: RPMI^-gln medium; 50 and 250 μM MSO, 12 h. As for the experimental part:
Parasite pellets were then extracted with 10 volumes of 50% methanol in water (v/v), followed by lyophilisation and solubilizing the lyophilized extracts with 50 μl of water. […] For LC-MS/MS, the parasite extracts were derivatized with 6-aminoquinolyl-N-hydroxysuccinimidyl carbamate (AQC), cleaned up with SPE and dried under vacuum, followed by reconstitution with 50 μl of 0.5% acetonitrile containing 0.1% formic acid. 10 μl of the sample was used for LC-MS/MS analysis carried out in Acquity C18 column (1.8 μm, 2.1 mm×100 mm) using Dionnex Ultimate3000 UHPLC system coupled with Q Exactive mass spectrometer (Thermo Fisher Scientific). Mobile phase consisted of Solvent A: 10 mM ammonium acetate containing 0.1% formic acid and solvent B: acetonitrile containing 0.1% formic acid. Mass spectrometry was performed under spray voltage of 4000/2500V with vaporizer temperature of 250° C., sheath gas and auxillary gas flow rate of 30 and 10 Arb, respectively. The acquisition was performed in Parallel Reaction Monitoring mode at 35000 resolution with a normalized collision energy of 25 eV. The calibration curves were prepared for the individual amino acids and the samples were spiked with internal standards containing deuterated amino acids.

Data set [4] relates to eIF2α phosphorylation in Pf3D7 rings. Particulars: 250 μM for 6 h, RPMI^-gln medium. As for the experimental part:
Pf3D7 cultures were subjected to two rounds of tight synchronization within a span of 3 h in the previous cycle, followed by one additional synchronization in the subsequent cycle immediately after RBC invasion.

Substrate in data set [5]: N[C@@H](CCC(=O)O)C(=O)O
Description: Recombinant PfGS enzyme assay (HPLC glutamine formation / Pi release) and inhibition. The class given is biochemical, Plasmodium falciparum. Particulars: other: Lineweaver-Burk plots; mean±SD, at least three different protein preparations.

Substrate in data set [6]: Nc1ncnc2c1ncn2[C@@H]1O[C@H](COP(=O)(O)OP(=O)(O)OP(=O)(O)O)[C@@H](O)[C@H]1O
Described as above. The class given is biochemical, Plasmodium falciparum. The conditions noted are these: other: Lineweaver-Burk plots; mean±SD, at least three different protein preparations.

Substrate in data set [7]: N
The data set is described as above. The class given is biochemical, Plasmodium falciparum. Particulars: other: Lineweaver-Burk plots; mean±SD, at least three different protein preparations.

Like-named read-outs stand apart in the source and are kept apart here.

With `C[C@@H]1CC[C@H]2[C@@H](C)C(=O)O[C@@H]3O[C@@]4(C)CC[C@@H]1[C@]32OO4` [ART, artemisinin], the “viable parasites after exposure in RSA” value in data set [1] (700 nM exposure for 6 h, PfCam3.I^R539T cultures, after 72 h) is “resulted in viable parasites”.
Broadly, the IC50 is the concentration that inhibits the measured activity by half. The Ki is a dissociation constant, usually derived from enzyme kinetics or from competition with a known ligand. The inhibition is the change of the read-out against control, counted positive when it falls. A higher inhibition goes with a response far below the control. Consider `CP(=O)(O)CCC(N)C(=O)O` (centres unmarked) [PPT, Phosphinothricin], for which the IC50 in data set [2] (RPMI medium lacking glutamine (RPMI^-gln)) was roughly 30 µM. Besides, the “IC50 in RPMI^Pgln relative to IC50 in RPMI^-gln” value in data set [2] (RPMI medium containing physiological levels (0.5 mM) of glutamine (RPMI^Pgln)) was roughly 10 times higher. Further, in data set [3], the Ki worked out at 2.31 ± 1.1 µM. The “growth of Pf clinical samples” value in the data set with Pf clinical isolates is “could inhibit the growth of Pf clinical samples to the extent that was observed for Pf3D7 strain”. For the same molecule, in the data set on Pf protein synthesis, the inhibition at 50 µM was 40 to 50%, the inhibition at 250 µM was roughly 80% and the inhibition at 1000 µM was roughly 50%.
For `CS(=N)(=O)CC[C@H](N)C(=O)O` (stereo partly drawn) [MSO, L-methionine sulfoximine], the half-maximal inhibitory concentration (IC50) in data set [2] was roughly 30 µM. Moreover, the “growth of Pf clinical samples” value with Pf clinical isolates was “could inhibit the growth of Pf clinical samples to the extent that was observed for Pf3D7 strain”. In addition, in the data set with Pf parasites, the “free glutamine levels in treated Pf parasites with respect to untreated parasites” value is on record as “did not show a significant decrease” and the “reduction of free asparagine levels with respect to untreated control” value is reported as 1.5-2.0 fold. In the data set on Pf protein synthesis, the inhibition at 50 µM was in the range of 40 to 50%, the inhibition at 250 µM is roughly 80% and the inhibition at 1000 µM was roughly 50%. Moreover, the “inhibition with respect to the untreated control” value in [1] (MSO alone for 6 h, PfCam3.I^R539T rings) is recorded as 10-20%. The “phosphorylation of eIF2α in Pf” value in [4] was “prominent phosphorylation”.

B1: rPfGS (Plasmodium falciparum glutamine synthetase) (Plasmodium falciparum 3D7) (protein)
chain: MKSVSFSNNAELYEYIKDKKNDVEIVACIITNLLGTYFKCFFYVKEITLNKLESGFSFDASSIKLCSDTEVSDFFIKVDHSTCYLEECDGKNILNIMCDIKRYNGFDYYKCPRTILKKTCEFVKNEGIADKVCIGNELEFFIFDKVNYSLDEYNTYLKVYDRESFSCKNDLSSIYGNHVVNKVEPHKDHFNNPNNEYLINDDSKKVKKKSGYFTTDPYDTSNIIKLRICRALNDMNINVQRYHHEVSTSQHEISLKYFDALTNADFLLITKQIIKTTVSSFNRTATFMPKPLVNDNGNGLHCNISLWKNNKNIFYHNDPSTFFLSKESFYFMYGIVKHAKALQAFCNATMNSYKRLVPGFETCQKLFYSFGSRSAVIRLSLINYSNPSEKRIEFRLPDCANSPHLVMAAIILAGYDGIKSKEQPLVPFESKDNHFYISSIFSKYVQHPENFNILTHALEGYESLHTINESPEFKNFFKCEEPQGISFSLVESLDALEKDHAFLTVNNIFTEEMIQEYIKFKREEIDAYNKYVNAYDYHLYYEC
Usually Km stands for the substrate concentration at which the rate is half of its maximum. In the case of B1, the values for the Km in data set [5], in [6] and in data set [7] were 730 ± 210 µM, 750 ± 140 µM and 530 ± 180 µM, respectively.
